Source: article PMC6514996, “Discovery of Potent and Selective Halogen-Substituted Imidazole-Thiosemicarbazides for Inhibition of Toxoplasma gondii Growth In Vitro via Structure-Based Design” (Molecules, 2019)
Converted amounts (≈) assume the structure as drawn.

Legend:
[1] = tested on: Toxoplasma gondii tachyzoites; set-up: method as in PMID 30744161; settings: ref [19], cited from earlier work; for IC50: inhibition of T. gondii tachyzoite proliferation, previous study; for SR (selectivity ratio): ratio of CC50 to IC50, previous study
[2] = Lipophilicity by HPLC (logkw extrapolation, OECD guideline); format: physicochemical; settings: Phenomenex Synergi 4 µm Polar-RP column, methanol:water, calibration with seven standards
Method: HPLC experiments were performed using a chromatograph equipped with an Elite LaChrom L-2130 gradient pump, L-2455 DAD detector, L-2300 column oven, and L-2200 autosampler (Hitachi-Merck, Darmstadt, Germany). The tested samples were applied into the Phenomenex Synergi 4 µm Polar-RP chromatographic column (Phenomenex, Torrance, CA, USA) (150 mm length, 4.6 mm i.d.). Mobile phases were degassed using a built-in membrane degasser.
Chromatographic analysis: 5 µL of each sample (0.1% methanolic solutions) was applied into the chromatographic column and chromatograms were developed at a flow rate of 1.0 mL min^−1 in the isocratic mode using various concentrations of methanol in the binary polar mobile phase: methanol:water (40:60, 45:55, 50:50, 55:45, 60:40, 65:35, and 70:30 (v/v)) Chromatograms were detected at 254 nm. All experiments were repeated in triplicate, and the final results were their arithmetic mean. Dead time was measured for uracil (Calbiochem—Merck, Darmstadt, Germany). All the experiments were performed at ambient temperature.
The chromatographic lipophilicity parameter (logkw) for 5–16 was obtained by the extrapolation of the retention parameter logk to pure water, according to the equation: logk = logkw − S × φ(1) where logkw is the value of the retention factor of a substance in pure water, S is the slope of the regression curve, and φ is the concentration (v/v) of methanol in the mobile phase.
Subsequently, logPHPLC parameters for 5–16 were calculated according to OECD guidelines, based on the equation obtained for seven standards with known lipohilicity parameters (logPo/w): logPo/w = 1.0239(± 0.03)·logkw − 0.1541(± 0.08); n = 7; r = 0.9976; se = 0.08; F = 1047.8(2)

[3] = tested on: Toxoplasma gondii RH strain tachyzoites (ATCC PRA 310); experiment: Influence on T. gondii proliferation in Hs27 cells, [3H]-uracil incorporation assay; format: cell-based; settings: for IC50: Toxoplasma gondii, HS27, 50% inhibition of T. gondii RH proliferation in vitro, Hs27 host cells, [3H]-uracil incorporation; for SR (selectivity ratio): ratio of CC50 (L929) to IC50 (T. gondii)
[4] = Cytotoxicity against L929 cells, MTT cell viability assay (ISO 10993-5:2009(E)); format: cell-based; settings: mouse, L929 mouse fibroblast cells; for viability at 24 h, 5 µg/mL / viability at 24 h, 25 µg/mL / viability at 24 h, 50 µg/mL / viability at 24 h, 125 µg/mL / viability at 24 h, 250 µg/mL / viability at 24 h, 500 µg/mL / viability at 24 h, 1000 µg/mL: read-out: viability of L929 cells (% of viable cells); for CC50 at 24 h: 50% cell proliferation inhibition, L929 cells
Excerpt: Since T. gondii is an obligate intracellular parasite that requires invasion of mammalian host cells to proliferate, compounds that inhibit parasite growth might be toxic to host cells as well. Therefore, as an initial indicator for host cell toxicity, we firstly evaluated compounds 5–16 for their ability to inhibit the growth of mouse fibroblast (L929) cells line according to the international standards: ISO 10993-5:2009(E).
To calculate the reduction of viability compared to the untreated blank the equation was used: viability (%) = 100% × sample OD570 (the mean value of the measured optical density of the treated cells)/blank OD570 (the mean value of the measured optical density of the untreated cells). CC50—represents the concentration of tested compounds that was required for a 50% cell proliferation inhibition in vitro. The effect of the tested compounds on the cell lines was measured using MTT assay according to the international standard: ISO 10993-5:2009(E). CC50 values were determined based on the plotted curves using GraphPad Prism program (version 8.0.1).
Cell culture: the L929 mouse fibroblast (ATTC® CCL-1™) was routinely cultured in IMDM (Iscove’s Modified Dulbecco Medium, Biowest, Nuaille, France), supplemented with 10% HIFBS, 100 U/mL penicillin and 100 μg/mL streptomycin. Cells were trypsinized twice a week and seeded at a density of 1 × 10^6 per T25 cell culture flask and incubated for 24–48 h in a 37 °C and 10% CO2 to achieve a confluent monolayer.
Cell viability assay: Assays were performed according to international standards: ISO 10993-5:2009(E), Biological evaluation of medical devices, Part 5: Tests for in vitro cytotoxicity. Cell viability were evaluated using the tetrazolium salt [3-(4,5-dimethylthiazol-2-yl)-2,5-diphenyltetrazolium bromide] (Sigma) and mouse fibroblasts L929 cells. For this assay we used only the culture medium, RPMI 1640, without phenol red (Biowest) supplemented with 10% HIFBS, 2 mM L-glutamine (Sigma), 100 U/mL penicillin, 100 μg/mL streptomycin. Shortly after, a 1 × 10^4/well of L929 cells were placed into 96-well plates and incubated in 37 °C and 10% CO2. Afterwards, an old culture medium was replaced by 100 μL of compounds and drugs dilutions in culture medium and the cells were treated for 24 h. Moreover, cells were treated with a 4.0–0.03% concentration of DMSO and 1M NaOH as a compound and drugs solvent (data not shown). Then, 50 μL of 1 mg/mL of MTT solution in RPMI 1640 without phenol red was added to each well and incubated 2h (37 °C, 10% CO2). Next, cell culture medium was aspirated cautiously and 150 μL of DMSO was added to each well, the plates were gently mixed. Then 25 μL 0.1M glycine buffer (pH = 10.5) (Sigma) was added. The optical density at 570 nm on the ELISA reader (Multiskan EX, Labsystems, Vienna, VA, USA), was read. The results were expressed as a percentage of viability compared to untreated cells. All experiments were performed in triplicate. For comparison reasons, two compounds known from our previous studies (6 and 9) were included in the bioassay performed for compounds 5, 7, 8, 9–16.

Row | SMILES | IC50 [1] | SR (selectivity ratio) [1] [fold] | chromatographic logP [2] | IC50 [3] [µg/mL] | SR (selectivity ratio) [3] | viability at 24 h, 5 µg/mL [4] [%] | viability at 24 h, 25 µg/mL [4] [%] | viability at 24 h, 50 µg/mL [4] [%] | viability at 24 h, 125 µg/mL [4] [%] | viability at 24 h, 250 µg/mL [4] [%] | viability at 24 h, 500 µg/mL [4] [%] | viability at 24 h, 1000 µg/mL [4] [%] | CC50 at 24 h [4] [µg/mL] | melting point [°C]
1 | Cc1nc[nH]c1C(=O)NNC(=S)Nc1cccc([N+](=O)[O-])c1 [Compound 1] | 14.78 µg/mL (≈ 46.1 µM) | 18 |  |  |  |  |  |  |  |  |  |  |  | 
2 | Cc1nc[nH]c1C(=O)NNC(=S)Nc1ccc([N+](=O)[O-])cc1 [Compound 2] | 21.62 µg/mL (≈ 67.5 µM) | 16 |  |  |  |  |  |  |  |  |  |  |  | 
3 | Cc1nc[nH]c1C(=O)NNC(=S)Nc1cccc(Cl)c1 [Compound 3] | 25.70 µg/mL (≈ 83 µM) | 10 |  |  |  |  |  |  |  |  |  |  |  | 
4 | Cc1ccc(NC(=S)NNC(=O)c2[nH]cnc2C)cc1Cl [Compound 4] | 18.62 µg/mL (≈ 57.5 µM) | 4 |  |  |  |  |  |  |  |  |  |  |  | 
5 | Cc1nc[nH]c1C(=O)NNC(=S)Nc1ccccc1F [Compound 5] |  |  | 2.8 | ≥ 69 | 6.61 | 98.1 | 97.3 | 74.8 | 87 | 69.3 | 64.1 | 45.8 | 455 (≈ 1550 µM) | 
6 | Cc1nc[nH]c1C(=O)NNC(=S)Nc1cccc(F)c1 [Compound 6] |  |  | 2.99 | ≥ 69 | 7.79 | 96.3 | 97.3 | 75.4 | 64.8 | 62.4 | 52.3 | 35.4 | 885 (≈ 3020 µM) | 
7 | Cc1nc[nH]c1C(=O)NNC(=S)Nc1ccc(F)cc1 [Compound 7] |  |  | 2.8 | ≥ 69 | 8.86 | 103 | 103 | 89.2 | 83.1 | 69.9 | 61.4 | 48.7 | 977 (≈ 3330 µM) | 
8 | Cc1nc[nH]c1C(=O)NNC(=S)Nc1ccccc1Cl [Compound 8, 4-(2-Chlorophenyl)-1-(4-methylimidazol-5-oyl)thiosemicarbazide] |  |  | 3.17 | 35.6 (≈ 115 µM) | 17.69 | 89.9 | 86.3 | 78.5 | 69.4 | 64.8 | 57.1 | 39.5 | 630 (≈ 2030 µM) | 217 to 219
9 | Cc1nc[nH]c1C(=O)NNC(=S)Nc1cccc(Cl)c1 [Compound 9] |  |  | 3.51 | 24.1 (≈ 78 µM) | 11.30 | 93.9 | 88.5 | 75.3 | 64.7 | 56.7 | 30.2 | 8.47 | 273 (≈ 881 µM) | 
10 | Cc1nc[nH]c1C(=O)NNC(=S)Nc1ccc(Cl)cc1 [Compound 10] |  |  | 3.44 | ≥ 69 | 3.15 | 103 | 96.3 | 70.3 | 63.6 | 56.6 | 23.6 | 13.6 | 231 (≈ 746 µM) | 
11 | Cc1nc[nH]c1C(=O)NNC(=S)Nc1cccc(Br)c1 [Compound 12, 4-(3-Bromophenyl)-1-(4-methylimidazol-5-oyl)thiosemicarbazide] |  |  | 3.71 | 15.6 (≈ 44.2 µM) |  | 95.3 | 89 | 74.4 | 65.7 | 56.8 | 20.2 | 7.52 | 238 (≈ 671 µM) | 
12 | Cc1nc[nH]c1C(=O)NNC(=S)Nc1ccc(Br)cc1 [Compound 13, 4-(4-Bromophenyl)-1-(4-methylimidazol-5-oyl)thiosemicarbazide] |  |  | 3.64 | 14.6 (≈ 41.1 µM) |  | 93.5 | 82 | 64.1 | 56.6 | 51.1 | 42.1 | 30.8 | 224 (≈ 631 µM) | 
13 | Cc1nc[nH]c1C(=O)NNC(=S)Nc1ccccc1I [Compound 14, 4-(2-Iodophenyl)-1-(4-methylimidazol-5-oyl)thiosemicarbazide] |  |  | 3.23 | 20.3 (≈ 50.6 µM) |  | 95.2 | 92.8 | 83.7 | 65.4 | 44.5 | 26.1 | 25 | 199 (≈ 496 µM) | 
14 | Nc1ccc(S(=O)(=O)Nc2ncccn2)cc1 [sulfadiazine, 4-amino-N-(2-pyrimidinyl)benzenesulfonamide, reference compound] | ~ 2721.45 µg/mL |  |  | > 2500 | <0.92 |  |  |  |  |  |  |  | > 2500 | 
15 | COc1cc(Cc2cnc(N)nc2N)cc(OC)c1OC [trimethoprim, 2,4-diamino-5-(3,4,5-trimethoxybenzyl)pyrimidine, reference compound] |  |  |  | 12.1 (≈ 41.8 µM) | >2.64 |  |  |  |  |  |  |  | > 32 | 
